Experimental data as given in ChEMBL document CHEMBL3885881, “DrugMatrix”.

Species: Rattus norvegicus
Experiment: DrugMatrix - Regimen: Daily Repeat
Format: toxicity, organism-based, Sprague-Dawley
Design: regimen Daily Repeat, gender Male, age 6-8 weeks
Conditions: in vivo, po, route oral GAVAGE, […]; for ABSOLUTE BASOPHIL / ABSOLUTE EOSINOPHIL / ABSOLUTE LYMPHOCYTE / ABSOLUTE MONOCYTE / ABSOLUTE SEGMENTED NEUTROPHIL / BASOPHIL / EOSINOPHIL / ERYTHROCYTE COUNT / HEMATOCRIT / HEMOGLOBIN / LEUKOCYTE COUNT / LYMPHOCYTE / MEAN CORPUSCULAR HEMOGLOBIN / MEAN CORPUSCULAR HEMOGLOBIN CONCENTRATION / MEAN CORPUSCULAR VOLUME / MONOCYTE / NEUTROPHIL / NUCLEATED RED BLOOD CELLS / PLATELET COUNT: tissue Blood; for ALANINE AMINOTRANSFERASE / ALBUMIN / ALKALINE PHOSPHATASE / ASPARTATE AMINOTRANSFERASE / BLOOD UREA NITROGEN / CARBON DIOXIDE / CHLORIDE / CHOLESTEROL / CREATINE PHOSPHOKINASE / CREATININE / GLUCOSE / LACTATE DEHYDROGENASE / LIPASE / PHOSPHORUS / POTASSIUM / SODIUM / TOTAL BILIRUBIN / TOTAL PROTEIN / URIC ACID: tissue Plasma
[1] = 0 mg/kg, 72 h, dose level Control, time 3 day
[2] = 0 mg/kg, 120 h, dose level Control, time 5 day
[3] = 100 mg/kg, 72 h, dose level Low, time 3 day

For `CC(=O)Nc1cccc(O)c1` [METACETAMOL], which “ABSOLUTE BASOPHIL” value [1] is on record?
Its value is 0 CELLS/uL.

What about the “ABSOLUTE EOSINOPHIL” value [1] of the same molecule?
Its value is 0 CELLS/uL.

What about the “ABSOLUTE LYMPHOCYTE” value [1] of the same molecule?
Its value is 14687.67 CELLS/uL.

What about the “ABSOLUTE MONOCYTE” value [1] of the same molecule?
The value was 164 CELLS/uL.

And the “ABSOLUTE SEGMENTED NEUTROPHIL” value [1]?
Its value is 1748.33 CELLS/uL.

What about the BASOPHIL [1] of the same molecule?
The BASOPHIL was 0%.

And the EOSINOPHIL [1]?
Its EOSINOPHIL is 0%.

And the “ERYTHROCYTE COUNT” value [1]?
The value was 5.51 x10E6/uL.

And the HEMATOCRIT [1]?
The HEMATOCRIT was 33.68%.

What about the HEMOGLOBIN [1] of the same molecule?
Its HEMOGLOBIN is 13.4 G/DL.

What about the “LEUKOCYTE COUNT” value [1] of the same molecule?
Its value is 16.6 x10E3/uL.

What about the LYMPHOCYTE [1] of the same molecule?
The LYMPHOCYTE was 88.83%.

And the “MEAN CORPUSCULAR HEMOGLOBIN” value [1]?
The value was 24.47 pg.

And the “MEAN CORPUSCULAR HEMOGLOBIN CONCENTRATION” value [1]?
The value was 39.82 G/DL.

What about the “MEAN CORPUSCULAR VOLUME” value [1] of the same molecule?
The value was 61.23 fL.

What about the MONOCYTE [1] of the same molecule?
Its MONOCYTE is 0.83%.

What about the NEUTROPHIL [1] of the same molecule?
The NEUTROPHIL was 10.33%.

What about the “NUCLEATED RED BLOOD CELLS” value [1] of the same molecule?
The value was 0 /100WBC.

What about the “PLATELET COUNT” value [1] of the same molecule?
The value was 1329.67 x10E3/uL.

What about the “ALANINE AMINOTRANSFERASE” value [1] of the same molecule?
Its value is 61.33 u/L.

What about the ALBUMIN [1] of the same molecule?
The ALBUMIN was 4.18 G/DL.

What about the “ALKALINE PHOSPHATASE” value [1] of the same molecule?
The value was 332.5 u/L.

And the “ASPARTATE AMINOTRANSFERASE” value [1]?
Its value is 98.33 u/L.

What about the “BLOOD UREA NITROGEN” value [1] of the same molecule?
The value was 15.83 mg/dL.

What about the “CARBON DIOXIDE” value [1] of the same molecule?
Its value is 27.83 mmol/L.

What about the CHLORIDE [1] of the same molecule?
The CHLORIDE was 100 MEQ/L.

And the CHOLESTEROL [1]?
The CHOLESTEROL was 76.17 mg/dL.

And the “CREATINE PHOSPHOKINASE” value [1]?
Its value is 729.17 u/L.

And the CREATININE [1]?
The CREATININE was 0.21 mg/dL.

And the GLUCOSE [1]?
The GLUCOSE was 151.83 mg/dL.

And the “LACTATE DEHYDROGENASE” value [1]?
Its value is 484.67 u/L.

And the LIPASE [1]?
Its LIPASE is 10 u/L.

And the PHOSPHORUS [1]?
Its PHOSPHORUS is 11.3 mg/dL.

What about the POTASSIUM [1] of the same molecule?
Its POTASSIUM is 6.1 MEQ/L.

And the SODIUM [1]?
The SODIUM was 142.9 MEQ/L.

What about the “TOTAL BILIRUBIN” value [1] of the same molecule?
Its value is 0.23 mg/dL.

And the “TOTAL PROTEIN” value [1]?
Its value is 5.68 G/DL.

And the “URIC ACID” value [1]?
The value was 1.75 mg/dL.

And the “ABSOLUTE BASOPHIL” value [2]?
Its value is 0 CELLS/uL.

What about the “ABSOLUTE EOSINOPHIL” value [2] of the same molecule?
The value was 58.67 CELLS/uL.

And the “ABSOLUTE LYMPHOCYTE” value [2]?
Its value is 15950.83 CELLS/uL.

What about the “ABSOLUTE MONOCYTE” value [2] of the same molecule?
The value was 172.5 CELLS/uL.

What about the “ABSOLUTE SEGMENTED NEUTROPHIL” value [2] of the same molecule?
Its value is 2551.33 CELLS/uL.

And the BASOPHIL [2]?
The BASOPHIL was 0%.

What about the EOSINOPHIL [2] of the same molecule?
The EOSINOPHIL was 0.33%.

What about the “ERYTHROCYTE COUNT” value [2] of the same molecule?
Its value is 5.5 x10E6/uL.

What about the HEMATOCRIT [2] of the same molecule?
Its HEMATOCRIT is 34.05%.

What about the HEMOGLOBIN [2] of the same molecule?
The HEMOGLOBIN was 13.42 G/DL.

And the “LEUKOCYTE COUNT” value [2]?
Its value is 18.73 x10E3/uL.

What about the LYMPHOCYTE [2] of the same molecule?
Its LYMPHOCYTE is 84.5%.

And the “MEAN CORPUSCULAR HEMOGLOBIN” value [2]?
The value was 24.42 pg.

What about the “MEAN CORPUSCULAR HEMOGLOBIN CONCENTRATION” value [2] of the same molecule?
Its value is 39.42 G/DL.

And the “MEAN CORPUSCULAR VOLUME” value [2]?
The value was 61.97 fL.

And the MONOCYTE [2]?
Its MONOCYTE is 1%.

What about the NEUTROPHIL [2] of the same molecule?
The NEUTROPHIL was 14.17%.

What about the “NUCLEATED RED BLOOD CELLS” value [2] of the same molecule?
The value was 0.33 /100WBC.

And the “PLATELET COUNT” value [2]?
Its value is 1143.17 x10E3/uL.

What about the “ALANINE AMINOTRANSFERASE” value [2] of the same molecule?
The value was 57 u/L.

And the ALBUMIN [2]?
Its ALBUMIN is 4.17 G/DL.

And the “ALKALINE PHOSPHATASE” value [2]?
The value was 347.33 u/L.

What about the “ASPARTATE AMINOTRANSFERASE” value [2] of the same molecule?
The value was 93.67 u/L.

What about the “BLOOD UREA NITROGEN” value [2] of the same molecule?
The value was 15.67 mg/dL.

What about the “CARBON DIOXIDE” value [2] of the same molecule?
The value was 27.17 mmol/L.

And the CHLORIDE [2]?
The CHLORIDE was 104.33 MEQ/L.

And the CHOLESTEROL [2]?
Its CHOLESTEROL is 69.5 mg/dL.

What about the “CREATINE PHOSPHOKINASE” value [2] of the same molecule?
Its value is 317.17 u/L.

What about the CREATININE [2] of the same molecule?
Its CREATININE is 0.2 mg/dL.

What about the GLUCOSE [2] of the same molecule?
Its GLUCOSE is 162.33 mg/dL.

And the “LACTATE DEHYDROGENASE” value [2]?
Its value is 408.67 u/L.

And the LIPASE [2]?
The LIPASE was 10.17 u/L.

And the PHOSPHORUS [2]?
Its PHOSPHORUS is 11.08 mg/dL.

And the POTASSIUM [2]?
The POTASSIUM was 6.36 MEQ/L.

And the SODIUM [2]?
Its SODIUM is 146.07 MEQ/L.

What about the “TOTAL BILIRUBIN” value [2] of the same molecule?
The value was 0.22 mg/dL.

And the “TOTAL PROTEIN” value [2]?
The value was 5.92 G/DL.

And the “URIC ACID” value [2]?
Its value is 1.47 mg/dL.

What about the “ABSOLUTE BASOPHIL” value [3] of the same molecule?
The value was 0 CELLS/uL.

What about the “ABSOLUTE EOSINOPHIL” value [3] of the same molecule?
Its value is 56.67 CELLS/uL.

And the “ABSOLUTE LYMPHOCYTE” value [3]?
The value was 16234.67 CELLS/uL.

And the “ABSOLUTE MONOCYTE” value [3]?
The value was 197 CELLS/uL.

What about the “ABSOLUTE SEGMENTED NEUTROPHIL” value [3] of the same molecule?
The value was 1911.67 CELLS/uL.

What about the BASOPHIL [3] of the same molecule?
Its BASOPHIL is 0%.

What about the EOSINOPHIL [3] of the same molecule?
Its EOSINOPHIL is 0.33%.

And the “ERYTHROCYTE COUNT” value [3]?
The value was 5.37 x10E6/uL.

What about the HEMATOCRIT [3] of the same molecule?
The HEMATOCRIT was 33.67%.

What about the HEMOGLOBIN [3] of the same molecule?
Its HEMOGLOBIN is 13.43 G/DL.

And the “LEUKOCYTE COUNT” value [3]?
Its value is 18.4 x10E3/uL.

What about the LYMPHOCYTE [3] of the same molecule?
The LYMPHOCYTE was 88.33%.

And the “MEAN CORPUSCULAR HEMOGLOBIN” value [3]?
Its value is 25 pg.

And the “MEAN CORPUSCULAR HEMOGLOBIN CONCENTRATION” value [3]?
Its value is 39.93 G/DL.

What about the “MEAN CORPUSCULAR VOLUME” value [3] of the same molecule?
Its value is 62.73 fL.

And the MONOCYTE [3]?
The MONOCYTE was 1%.

And the NEUTROPHIL [3]?
Its NEUTROPHIL is 10.33%.

What about the “NUCLEATED RED BLOOD CELLS” value [3] of the same molecule?
The value was 0 /100WBC.

What about the “PLATELET COUNT” value [3] of the same molecule?
Its value is 1217 x10E3/uL.

What about the “ALANINE AMINOTRANSFERASE” value [3] of the same molecule?
The value was 68.67 u/L.

What about the ALBUMIN [3] of the same molecule?
Its ALBUMIN is 4.23 G/DL.

What about the “ALKALINE PHOSPHATASE” value [3] of the same molecule?
Its value is 369.67 u/L.

What about the “ASPARTATE AMINOTRANSFERASE” value [3] of the same molecule?
Its value is 101.67 u/L.

What about the “BLOOD UREA NITROGEN” value [3] of the same molecule?
The value was 14.67 mg/dL.

And the “CARBON DIOXIDE” value [3]?
The value was 31 mmol/L.

What about the CHLORIDE [3] of the same molecule?
Its CHLORIDE is 100.67 MEQ/L.

What about the CHOLESTEROL [3] of the same molecule?
Its CHOLESTEROL is 76.33 mg/dL.

What about the “CREATINE PHOSPHOKINASE” value [3] of the same molecule?
The value was 371.33 u/L.

And the CREATININE [3]?
Its CREATININE is 0.22 mg/dL.

What about the GLUCOSE [3] of the same molecule?
Its GLUCOSE is 142.67 mg/dL.

And the “LACTATE DEHYDROGENASE” value [3]?
Its value is 561.67 u/L.

And the LIPASE [3]?
The LIPASE was 10.33 u/L.

And the PHOSPHORUS [3]?
The PHOSPHORUS was 11.3 mg/dL.

What about the POTASSIUM [3] of the same molecule?
Its POTASSIUM is 6.59 MEQ/L.

What about the SODIUM [3] of the same molecule?
The SODIUM was 143.83 MEQ/L.

What about the “TOTAL BILIRUBIN” value [3] of the same molecule?
The value was 0.23 mg/dL.

And the “TOTAL PROTEIN” value [3]?
The value was 5.8 G/DL.

What about the “URIC ACID” value [3] of the same molecule?
Its value is 1.7 mg/dL.
